pKd: −log10 of the molar value. Like-named read-outs stand apart in the source and are kept apart here. Values belong to the compound of their own block, whether it stands above or below them.
Legend:
Assay type in all cases: binding
Ribonuclease A (RNaseA) [1] = biological target: T1, Ribonuclease A (RNaseA) (Bos taurus, UniProt P61823); test: reactive liquid sample DESI-MS of the native […] complex
T1 sequence (P61823 27-150): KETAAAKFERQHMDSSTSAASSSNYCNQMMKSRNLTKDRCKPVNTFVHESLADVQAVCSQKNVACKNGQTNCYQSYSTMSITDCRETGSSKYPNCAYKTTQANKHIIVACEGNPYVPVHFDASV

Ribonuclease A (RNaseA) [2] = biological target: T1, Ribonuclease A (RNaseA); test: as above; remark: listed apart in the source
Ribonuclease A (RNaseA) [3] = biological target: T1, Ribonuclease A (RNaseA); test: reactive liquid sample DESI-MS of the native complex, ligand titration
lysozyme = lysozyme (Gallus gallus, UniProt P00698); test: reactive liquid sample DESI-MS of the native […] complex
Sequence of lysozyme (P00698 19-147): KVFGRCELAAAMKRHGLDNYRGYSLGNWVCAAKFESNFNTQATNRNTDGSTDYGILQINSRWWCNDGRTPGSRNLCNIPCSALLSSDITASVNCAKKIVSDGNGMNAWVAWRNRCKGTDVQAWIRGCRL

reactive liquid sample DESI-MS of the native 1:1 complex ([holo]/[apo] ratio at (Ribonuclease A (RNaseA) [1]): 0.13±0.017
Structure (SMILES): Nc1ccn([C@@H]2O[C@H](CO)[C@@H](O)[C@H]2OP(=O)(O)O)c(=O)n1 [2′-CMP, cytidine 2′-monophosphate]

reactive liquid sample DESI-MS of the native 1:1 complex ([holo]/[apo] ratio at (Ribonuclease A (RNaseA) [2]): 0.37±0.04
Structure (SMILES): Nc1ccn([C@@H]2O[C@H](COP(=O)(O)OP(=O)(O)O)[C@@H](O)[C@H]2O)c(=O)n1 [CDP, cytidine 5′-diphosphate]

pKd (Ribonuclease A (RNaseA) [3]): 5.72
Structure (SMILES): Nc1ccn([C@@H]2O[C@H](COP(=O)(O)OP(=O)(O)OP(=O)(O)O)[C@@H](O)[C@H]2O)c(=O)n1 [CTP, cytidine 5′-triphosphate]

pKd (lysozyme): 3.77
Structure (SMILES): CC(=O)N[C@H]1[C@H](O[C@H]2[C@H](O)[C@@H](NC(C)=O)C(O)O[C@@H]2CO)O[C@H](CO)[C@@H](O[C@@H]2O[C@H](CO)[C@@H](O)[C@H](O)[C@H]2NC(C)=O)[C@@H]1O (stereo partly shown) [NAG3, N,N’,N’’-triacetylchitotriose]
